Test results published in ChEMBL document CHEMBL4411295, “Discovery of novel nonsteroidal VDR agonists with novel diarylmethane skeleton for the treatment of breast cancer” (Eur J Med Chem, 2019).
Activity calls are given as the source filed them. No cut-off for these calls is given here.

Tests used:
[1] = system: MCF7; assay: Induction of apoptosis in human MCF7 cells assessed as late apoptotic cells at 1 uM after 48 hrs by Annexin V-FITC/propidium iodide staining-based flow cytometric analysis (reference value: 1.61%); type: functional
[2] = system: MCF7; assay: Cell cycle arrest in human MCF7 cells assessed as accumulation at G2/M phase at 1 uM after 24 hrs by propidium iodide staining based flow cytometric analysis (reference value: 12.04%); type: functional
[3] = system: MCF7; assay: Induction of apoptosis in human MCF7 cells assessed as early apoptotic cells at 1 uM after 48 hrs by Annexin V-FITC/propidium iodide staining-based flow cytometric analysis (reference value: 3.80%); type: functional
[4] = system: MCF7; assay: Induction of apoptosis in human MCF7 cells assessed as viable cells at 1 uM after 48 hrs by Annexin V-FITC/propidium iodide staining-based flow cytometric analysis (reference value: 94.3%); type: functional; conditions: MCF7, 48 h, read-out: Activity
[5] = system: MCF7; assay: Induction of apoptosis in human MCF7 cells assessed as necrotic cells at 1 uM after 48 hrs by Annexin V-FITC/propidium iodide staining-based flow cytometric analysis (reference value: 0.29%); type: functional
[6] = system: MCF7; assay: Antitumor activity against human MCF7 cells xenografted in BALB/C nude mouse assessed as reduction in tumor volume at 0.5 ug/kg, ip administered 3 times per week; type: functional, organism-based
[7] = system: Mus musculus; assay: Hypercalcemic effect in BALB/C nude mouse xenografted with human MCF7 cells at 0.5 ug/kg, ip administered 3 times per week measured after 15 days; type: ADME, organism-based; conditions: in vivo, 0.0005 mg/kg, 360 h
[8] = system: MCF7; assay: Cell cycle arrest in human MCF7 cells assessed as accumulation at S phase at 1 uM after 24 hrs by propidium iodide staining based flow cytometric analysis (reference value: 31.32%); type: functional
[9] = system: MCF7; assay: Cell cycle arrest in human MCF7 cells assessed as accumulation at G0/G1 phase at 1 uM after 24 hrs by propidium iodide staining based flow cytometric analysis (reference value: 56.64%); type: functional
[10] = molecular target: T1, Vitamin D3 receptor (Homo sapiens) (UniProt P11473); assay: Binding affinity at VDR (unknown origin) assessed as relative VDR-probe inhibition at 1 uM by fluorescence polarization assay relative to 1,25(OH)2D3
T1 sequence (whole entry): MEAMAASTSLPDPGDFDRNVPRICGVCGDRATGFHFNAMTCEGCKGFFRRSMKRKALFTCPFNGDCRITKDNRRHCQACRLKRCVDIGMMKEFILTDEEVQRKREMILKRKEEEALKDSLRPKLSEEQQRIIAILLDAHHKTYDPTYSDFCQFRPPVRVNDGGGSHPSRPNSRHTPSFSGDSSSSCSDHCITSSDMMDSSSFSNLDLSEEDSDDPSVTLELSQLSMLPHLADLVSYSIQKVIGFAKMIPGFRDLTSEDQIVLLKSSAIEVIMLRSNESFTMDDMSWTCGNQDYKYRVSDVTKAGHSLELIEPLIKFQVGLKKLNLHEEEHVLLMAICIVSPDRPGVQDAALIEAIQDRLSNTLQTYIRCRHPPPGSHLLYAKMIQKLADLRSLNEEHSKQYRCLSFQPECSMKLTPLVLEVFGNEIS

[11] = system: MCF7; assay: Induction of apoptosis in human MCF7 cells assessed as increase in p21 expression at 0.5 uM after 24 hrs by qPCR analysis; type: functional, cell-based
[12] = system: MCF7; assay: Induction of apoptosis in human MCF7 cells assessed as reduction in Bcl2 level at 0.5 uM after 24 hrs by Western blot analysis; type: functional, cell-based
[13] = system: MCF7; assay: Induction of apoptosis in human MCF7 cells assessed as increase in p21 level at 0.5 uM after 24 hrs by Western blot analysis; type: functional, cell-based
[14] = system: MCF7; assay: Induction of apoptosis in human MCF7 cells assessed as reduction in Bcl2 expression at 0.5 uM after 24 hrs by qPCR analysis; type: functional, cell-based
[15] = system: MCF7; assay: Induction of apoptosis in human MCF7 cells assessed as increase in Bax level at 0.5 uM after 24 hrs by Western blot analysis; type: functional, cell-based
[16] = system: MCF7; assay: Induction of apoptosis in human MCF7 cells assessed as increase in Bax expression at 0.5 uM after 24 hrs by qPCR analysis; type: functional, cell-based
[17] = system: MCF7; assay: Induction of apoptosis in human MCF7 cells at 0.5 uM after 48 hrs by Annexin V-FITC/propidium iodide staining-based flow cytometric analysis; type: functional, cell-based
[18] = system: MCF7; assay: Antiproliferative activity against human MCF7 cells after 24 hrs by MTT assay; type: functional, cell-based; conditions: MCF7, 24 h
[19] = system: L02; assay: Cytotoxicity against human LO2 cells assessed as reduction in cell viability after 24 hrs by MTT assay; type: cell-based; conditions: L02, 24 h

## C=C1/C(=C\C=C2/CCC[C@]3(C)[C@@H]([C@H](C)CCCC(C)(C)O)CC[C@@H]23)C[C@@H](O)C[C@@H]1O [CALCITRIOL]
[1]
  Activity: 3.88%
[2]
  Activity: 4.11%
[3]
  Activity: 14%
[4]
  viability at 1 µM: 81.8%
[5]
  Activity: 0.4%
[6]
  Activity: inactive
[7]
  Activity: Toxic
[8]
  Activity: 25.56%
[9]
  Activity: 70.33%

## CCN(CC)CCNC(=O)c1ccc(C(CC)(CC)c2ccc(C#CC(C)(C)O)c(C)c2)n1CC
[10]
  inhibition: 60.2%
[11]
  Activity: Active
[12]
  Activity: Active
[13]
  Activity: Active
[14]
  Activity: Active
[15]
  Activity: Active
[16]
  Activity: Active

## CCN(CC)CCNC(=O)c1ccc(C(CC)(CC)c2ccc(C#CC(C)(O)CC)c(C)c2)n1CC (configuration not stated)
[10]
  inhibition: 63.4%
[17]
  Activity: Active
[11]
  Activity: Active
[12]
  Activity: Active
[13]
  Activity: Active
[14]
  Activity: Active
[15]
  Activity: Active
[16]
  Activity: Active

## CCCC(O)(C#Cc1ccc(C(CC)(CC)c2ccc(C(=O)NCCN(CC)CC)n2CC)cc1C)CCC
[10]
  inhibition: 52.1%

## CCN(CC)CCNC(=O)c1cc(C(CC)(CC)c2ccc(C#CC(C)(C)O)c(C)c2)cn1CC
[10]
  inhibition: 56.3%

## CCN(CC)CCNC(=O)c1cc(C(CC)(CC)c2ccc(C#CC3(O)CCCCC3)c(C)c2)cn1CC
[18]
  IC50: 3070 nM
[10]
  inhibition: 44.2%

## CCN(CC)CCNC(=O)c1cc(C(CC)(CC)c2ccc(C#CC3(O)CCC3)c(C)c2)cn1CC
[18]
  IC50: 1280 nM
[10]
  inhibition: 49.3%
[19]
  IC50: > 50 µM
[11]
  Activity: Active
[12]
  Activity: Active
[13]
  Activity: Active
[14]
  Activity: Active
[15]
  Activity: Active
[16]
  Activity: Active

## C=C1/C(=C\C=C2/CCC[C@]3(C)[C@@H]([C@H](C)/C=C/[C@@H](O)C4CC4)CC[C@@H]23)C[C@@H](O)C[C@@H]1O [CALCIPOTRIENE]
[1]
  Activity: 3.77%
[2]
  Activity: 12.55%
[3]
  Activity: 15.1%
[4]
  viability at 1 µM: 80.8%
[5]
  Activity: 0.31%
[8]
  Activity: 24.45%
[9]
  Activity: 63%

## CCCC(O)(C#Cc1ccc(C(CC)(CC)c2cc(C(=O)NCCN(CC)CC)n(CC)c2)cc1C)CCC
[10]
  inhibition: 51.1%
[11]
  Activity: Active
[12]
  Activity: Active
[13]
  Activity: Active
[14]
  Activity: Active
[15]
  Activity: Active
[16]
  Activity: Active

## CCN(CC)CCNC(=O)c1cc(C(CC)(CC)c2ccc(C#CC(C)(O)CC)c(C)c2)cn1CC (configuration not stated)
[10]
  inhibition: 59.2%
